Measurements published in patent US20100173943A1, “INSECTICIDAL COMPOSITIONS WITH IMPROVED ACTION” (BAYER CROPSCIENCE AG, priority 2007, published 2010).

Legend:
[1] = test system: cotton aphid (Aphis gossypii); test: Aphis gossypii test (APHIGO spray treatment); assay type: in vivo; details: cotton leaves sprayed, 6 days; for pest or weed control at 4 ppm: 4 ppm a.i. alone; for pest or weed control at 0.8 ppm: 0.8 ppm a.i. alone
Summary of the method: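 Cotton leaves heavily infested with aphids sprayed with active ingredient formulated in DMF/alkylaryl polyglycol ether emulsifier and diluted in water to the test concentration, with ammonium salts and/or penetrants at 1000 ppm each where required. Kill rate (%) scored after the chosen period.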

[2] = test system: green peach aphid (Myzus persicae); test: Myzus persicae test (MYZUPE); assay type: in vivo; details: pepper plants sprayed, 6 days; for pest or weed control at 100 ppm: 100 ppm a.i. alone; for pest or weed control at 0.8 ppm: 0.8 ppm a.i. alone; for pest or weed control at 4 ppm: 4 ppm a.i. alone
Summary of the method: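 Compound formulated in DMF with alkylaryl polyglycol ether emulsifier, diluted in emulsifier-containing water; ammonium salts and/or penetrants added at 1000 ppm each where required. Heavily infested pepper plants (Capsicum annuum) sprayed at desired concentration. Kill rate (%) scored after desired time; 100% = all aphids dead.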

[3] = 4 ppm a.i. + AMS and RME 1000 ppm each
[4] = 4 ppm a.i. + ammonium sulphate 1000 ppm
[5] = 4 ppm a.i. + rapeseed oil methyl ester 1000 ppm
[6] = Aphis gossypii, 144 h, read-out: Kill in % after 6 days a.i.
[7] = 100 ppm a.i. + AMS and RME 1000 ppm each
[8] = 100 ppm a.i. + ammonium sulphate 1000 ppm
[9] = 100 ppm a.i. + rapeseed oil methyl ester 1000 ppm
[10] = Myzus persicae, 144 h, read-out: Kill in % after 6 days a.i.
[11] = 0.8 ppm a.i. + AMS and RME 1000 ppm each
[12] = 0.8 ppm a.i. + ammonium sulphate 1000 ppm
[13] = 0.8 ppm a.i. + rapeseed oil methyl ester 1000 ppm

| SMILES | Kill in % after 6 days +AMS + RME [1, 3] [%] | Kill in % after 6 days +AMS [1, 4] [%] | Kill in % after 6 days +RME [1, 5] [%] | pest or weed control at 4 ppm [1, 6] [%] | Kill in % after 6 days +AMS + RME [1, 11] [%] | Kill in % after 6 days +AMS [1, 12] [%] | Kill in % after 6 days +RME [1, 13] [%] | pest or weed control at 0.8 ppm [1, 6] [%] | Kill in % after 6 days +AMS + RME [2, 11] [%] | Kill in % after 6 days +AMS [2, 12] [%] | Kill in % after 6 days +RME [2, 13] [%] | Kill in % after 6 days +AMS + RME [2, 3] [%] | Kill in % after 6 days +AMS [2, 4] [%] | Kill in % after 6 days +RME [2, 5] [%] | pest or weed control at 0.8 ppm [2, 10] [%] | pest or weed control at 4 ppm [2, 10] [%] | other results |
| --- | --- | --- | --- | --- | --- | --- | --- | --- | --- | --- | --- | --- | --- | --- | --- | --- | --- |
| CN(Cc1cccnc1)C1=CC(=O)OC1 [Compound I-21, 4-[methyl(pyrid-3-ylmethyl)amino]furan-2(5H)-one] | 45 | 5 | 50 | 10 |  |  |  |  |  |  |  |  |  |  |  |  | Kill in % after 6 days +AMS + RME [2, 7]: 65%; Kill in % after 6 days +AMS [2, 8]: 70%; Kill in % after 6 days +RME [2, 9]: 90%; pest or weed control at 100 ppm [2, 10]: 50% |
| CCCN(Cc1ccc(Cl)nc1)C1=CC(=O)CCC1 [Compound I-34, 3-{[(6-chloropyrid-3-yl)methyl](propyl)amino}cyclohex-2-en-1-one] |  |  |  |  |  |  |  |  |  |  |  |  |  |  |  |  | Kill in % after 6 days +AMS + RME [1, 7]: 45%; Kill in % after 6 days +AMS [1, 8]: 20%; Kill in % after 6 days +RME [1, 9]: 40%; pest or weed control at 100 ppm ([1]; Aphis gossypii, 144 h, 100 ppm a.i. alone, read-out: Kill in % after 6 days a.i.): 15%; Kill in % after 6 days +AMS + RME [2, 7]: 85%; Kill in % after 6 days +AMS [2, 8]: 50%; Kill in % after 6 days +RME [2, 9]: 85%; pest or weed control at 100 ppm [2, 10]: 40% |
| O=C1C=C(N(Cc2cnc(Br)c(F)c2)CC(F)F)CO1 [Compound I-16, 4-{[(6-bromo-5-fluoropyrid-3-yl)methyl](2,2-difluoroethyl)amino}-furan-2(5H)-one] | 90 | 95 | 98 | 80 | 5 | 10 | 10 | 0 | 10 | 0 | 10 | 100 | 99 | 98 | 5 | 95 |  |
| O=C1C=C(N(CCF)Cc2cnc(Cl)c(Cl)c2)CO1 [Compound I-14, 4-{[(5,6-dichloropyrid-3-yl)methyl](2-fluoroethyl)amino}furan-2(5H)-one] |  |  |  |  | 70 | 5 | 40 | 0 |  |  |  | 95 | 60 | 95 |  | 25 |  |
| O=C1C=C(N(Cc2ccc(Cl)nc2)C2CC2)CO1 [Compound I-31, 4-{[(6-chloropyrid-3-yl)methyl](cyclopropyl)amino}furan-2(5H)-one] |  |  |  |  | 80 | 65 | 80 | 50 | 95 | 80 | 100 |  |  |  | 50 |  | Kill in % after 6 days +AMS + RME ([1]; 0.16 ppm a.i. + AMS and RME 1000 ppm each): 60%; Kill in % after 6 days +AMS ([1]; 0.16 ppm a.i. + ammonium sulphate 1000 ppm): 30%; Kill in % after 6 days +RME ([1]; 0.16 ppm a.i. + rapeseed oil methyl ester 1000 ppm): 15%; pest or weed control at 0.16 ppm ([1]; Aphis gossypii, 144 h, 0.16 ppm a.i. alone, read-out: Kill in % after 6 days a.i.): 0% |
| CN(Cc1cnc(Cl)c(Cl)c1)C1=CC(=O)OC1 [Compound I-10, 4-{[(5,6-dichloropyrid-3-yl)methyl](methyl)amino}furan-2(5H)-one] | 99 | 99 | 85 | 65 |  |  |  |  | 99 | 0 | 90 |  |  |  | 0 |  |  |
| O=C1C=C(N(Cc2ccc(F)nc2)C2CC2)CO1 [Compound I-22, 4-{cyclopropyl[(6-fluoropyrid-3-yl)methyl]amino}furan-2(5H)-one] | 65 | 70 | 55 | 60 | 45 | 20 | 30 | 25 |  |  |  | 80 | 0 | 70 |  | 5 | Kill in % after 6 days +AMS + RME ([2]; 20 ppm a.i. + AMS and RME 1000 ppm each): 90%; Kill in % after 6 days +AMS ([2]; 20 ppm a.i. + ammonium sulphate 1000 ppm): 80%; Kill in % after 6 days +RME ([2]; 20 ppm a.i. + rapeseed oil methyl ester 1000 ppm): 85%; pest or weed control at 20 ppm ([2]; Myzus persicae, 144 h, 20 ppm a.i. alone, read-out: Kill in % after 6 days a.i.): 65% |
| O=C1C=C(N(Cc2cnc(Br)c(F)c2)C2CC2)CO1 [Compound I-12, 4-{[(6-bromo-5-fluoropyrid-3-yl)methyl](cyclopropyl)amino}furan-2(5H)-one] | 75 | 80 | 85 | 55 | 25 | 5 | 10 | 0 | 45 | 0 | 10 | 95 | 95 | 100 | 5 | 85 |  |
